Measurements published in patent US20110065796A1 (SHIRE LLC, priority 2009, published 2011).

How the values were obtained:
[1] = Prodrug stability in simulated gastric fluid; conditions: 37° C., pH 1.1, HPLC
Procedure: (§1) The remaining concentrations of the prodrugs were then assayed by H PLC.

[2] = Prodrug stability in simulated intestinal fluid; conditions: 37° C., pH 6.8, HPLC
Procedure: as §1

Compound	% prodrug remaining following incubation for 1 h in simulated gastric fluid pH 1.1 [1] [%]	% prodrug remaining following incubation for 2 h in simulated intestinal fluid pH 6.8 [2] [%]
O=C(O)CC1N=C(NC(=O)Cc2c(Cl)cccc2Cl)NC1=O (centres unmarked) [Compound 4, Guanfacine Fumaryl Cyclic Adduct]	97	84
N=C(NC(=O)CC[C@H](NC(=O)[C@@H]1CCC(=O)N1)C(=O)O)NC(=O)Cc1c(Cl)cccc1Cl [Compound 6, Guanfacine ((S)-γ-Glutamate-(S)-Pyroglutamic acid) Amide]	81	98
N=C(NC(=O)Cc1c(Cl)cccc1Cl)NC(=O)NC(C(=O)O)c1ccccc1 (centres unmarked) [Compound 8, Guanfacine Phenylglycine Urea]	96	100
N=C(NC(=O)CCNC(=O)[C@@H]1CCC(=O)N1)NC(=O)Cc1c(Cl)cccc1Cl [Compound 10, Guanfacine (β-Alanine-(S)-Pyroglutamic acid) Amide]	82	112
CN1CC(=O)N=C1NC(=O)Cc1c(Cl)cccc1Cl [Compound 12, Guanfacine-Sarcosine Cyclic Adduct]	48	87
N=C(NC(=O)Cc1c(Cl)cccc1Cl)NC(=O)Oc1ccc(C[C@H](N)C(=O)O)cc1 [Compound 13, Guanfacine (S)-Tyrosine Carbamate]	74	81
N=C(NC(=O)Cc1c(Cl)cccc1Cl)NC(=O)O[C@@H]1CN[C@H](C(=O)O)C1 [Compound 14, Guanfacine (S,S)-4-Hydroxyproline Carbamate]	70	108
CC(=O)N[C@@H](COC(=O)NC(=N)NC(=O)Cc1c(Cl)cccc1Cl)C(=O)O [Compound 15, Guanfacine Acetyl-(S)-Serine Carbamate]	83	112
N=C(NC(=O)Cc1c(Cl)cccc1Cl)NC(=O)OC[C@H](NC(=O)[C@@H]1CCC(=O)N1)C(=O)O [Compound 16, Guanfacine ((S)-Serine-(S)-Pyroglutamic acid) Carbamate]	78	95
CC(C)[C@@H](N)C(=O)N[C@@H](COC(=O)NC(=N)NC(=O)Cc1c(Cl)cccc1Cl)C(=O)O [Compound 18, Guanfacine ((S)-Serine-(R)-Valine) Carbamate]	74	108
C[C@@H](OC(=O)NC(=N)NC(=O)Cc1c(Cl)cccc1Cl)[C@H](NC(=O)[C@@H]1CCC(=O)N1)C(=O)O [Compound 19, Guanfacine ((S)-Threonine-(S)-Pyroglutamic acid) Carbamate]	92	102
CC(C)[C@H](N)C(=O)N[C@H](C(=O)O)[C@@H](C)OC(=O)NC(=N)NC(=O)Cc1c(Cl)cccc1Cl [Compound 20, Guanfacine ((S)-Threonine-(S)-Valine) Carbamate]	79	100
CC(C)[C@@H](N)C(=O)N[C@H](C(=O)O)[C@@H](C)OC(=O)NC(=N)NC(=O)Cc1c(Cl)cccc1Cl [Compound 21, Guanfacine ((S)-Threonine-(R)-Valine) Carbamate]	83	103
CC(C)[C@@H](N)C(=O)NCCCC(=O)NC(=N)NC(=O)Cc1c(Cl)cccc1Cl [Compound 22, Guanfacine (GABA-(R)-Valine) Amide]	106	85
N=C(NC(=O)CCCNC(=O)[C@@H]1CCC(=O)N1)NC(=O)Cc1c(Cl)cccc1Cl [Compound 23, Guanfacine (GABA-(S)-Pyroglutamic acid) Amide]	98	78
CC(C)[C@@H](N)C(=O)NCCOC(=O)NC(=N)NC(=O)Cc1c(Cl)cccc1Cl [Compound 27, Guanfacine (Ethanolamine-(R)-Valine) Carbamate]	78	111
N=C(NC(=O)Cc1c(Cl)cccc1Cl)NC(=O)OCCNC(=O)[C@@H]1CCC(=O)N1 [Compound 28, Guanfacine (Ethanolamine-(S)-Pyroglutamic acid) Carbamate]	103	106
CC(C)[C@H](NC(=O)COC(=O)NC(=N)NC(=O)Cc1c(Cl)cccc1Cl)C(=O)O [Compound 29, Guanfacine (Glycolyl-(S)-Valine) Carbamate]	80	99
CC(C)[C@@H](NC(=O)COC(=O)NC(=N)NC(=O)Cc1c(Cl)cccc1Cl)C(=O)O [Compound 30, Guanfacine (Glycolyl -(R)-Valine) Carbamate]	77	160
CC(C)[C@@H](N)C(=O)N[C@H](CCC(=O)NC(=N)NC(=O)Cc1c(Cl)cccc1Cl)C(=O)O [Compound 31, Guanfacine ((R)-γ-Glutamate (R)-Valine) Amide]	70	85
CC(C)[C@H](N)C(=O)N[C@H](CCC(=O)NC(=N)NC(=O)Cc1c(Cl)cccc1Cl)C(=O)O [Compound 32, Guanfacine ((R)-γ-Glutamate-(S)-Valine) Amide]	93	84

Next, values leading:

% prodrug remaining following incubation for 1 h in simulated gastric fluid pH 1.1 [1] [%]	% prodrug remaining following incubation for 2 h in simulated intestinal fluid pH 6.8 [2] [%]	Compound
79	99	CC(C)[C@H](NC(=O)CC(C)(C)CC(=O)NC(=N)NC(=O)Cc1c(Cl)cccc1Cl)C(=O)O [Compound 33, Guanfacine (3,3-dimethylglutaryl-(S)-Valine) Amide]
51	91	O=C1CCN=C(NC(=O)Cc2c(Cl)cccc2Cl)N1 [Compound 34, Guanfacine-β-Alanine Cyclic Adduct]
83	108	CC(C)[C@@H]1N=C(NC(=O)Cc2c(Cl)cccc2Cl)NC1=O [Compound 35, Guanfacine-(S)-Valine Cyclic Adduct]
83	101	NCCCC[C@@H]1N=C(NC(=O)Cc2c(Cl)cccc2Cl)NC1=O [Compound 36, Guanfacine-(S)-Lysine Cyclic Adduct]
70	87	NC(=O)CC[C@@H]1N=C(NC(=O)Cc2c(Cl)cccc2Cl)NC1=O [Compound 38, Guanfacine-(S)-Glutamine Cyclic Adduct]
89	104	C[C@@H]1N=C(NC(=O)Cc2c(Cl)cccc2Cl)NC1=O [Compound 39, Guanfacine-(S)-AlanineCyclic Adduct]
70	83	CC(C)C[C@@H](N)C(=O)N[C@@H](CCC(=O)NC(=N)NC(=O)Cc1c(Cl)cccc1Cl)C(=O)O [Compound 42, Guanfacine ((S)-γ-Glutamate-(R)-Leucine) Amide]
62	85	N=C(NC(=O)CC[C@H](NC(=O)[C@H](N)CCCCN)C(=O)O)NC(=O)Cc1c(Cl)cccc1Cl [Compound 43, Guanfacine ((S)-γ-Glutamate-(R)-Lysine) Amide]
75	85	CSCC[C@@H](N)C(=O)N[C@@H](CCC(=O)NC(=N)NC(=O)Cc1c(Cl)cccc1Cl)C(=O)O [Compound 44, Guanfacine ((S)-γ-Glutamate-(R)-Methionine) Amide]
74	91	N=C(NC(=O)CC[C@H](NC(=O)[C@H](N)Cc1ccc(O)cc1)C(=O)O)NC(=O)Cc1c(Cl)cccc1Cl [Compound 45, Guanfacine ((S)-γ-Glutamate-(R)-Tyrosine) Amide]
61	81	N=C(NC(=O)CC[C@H](NC(=O)[C@H](N)CCC(N)=O)C(=O)O)NC(=O)Cc1c(Cl)cccc1Cl [Compound 46, Guanfacine ((S)-γ-Glutamate-(R)-Glutamine) Amide]
72	89	N=C(NC(=O)CC[C@H](NC(=O)[C@H](N)CO)C(=O)O)NC(=O)Cc1c(Cl)cccc1Cl [Compound 47, Guanfacine ((S)-γ-Glutamate-(R)-Serine) Amide]
87	101	N=C(NC(=O)Cc1c(Cl)cccc1Cl)NC(=O)OCCNC(=O)CN [Compound 49, Guanfacine (Ethanolamine-Glycine) Carbamate]
